Results as given in US8945847B2, “Methods and kits for ascertaining biosafety of an agent” (Yissum Research Development Company of the Hebrew …, priority 2010, dated 2015).

Assays:
rodents = conditions: in vivo; cited from earlier work
human = conditions: in vivo; cited from earlier work
[1] = test system: AFP, SOX17, HOXA1, NCAM1 in EBs; assay: Immunofluorescent labeling of treated EBs; type: cell-based, human
Procedure: Immunofluorescent labeling: EBs were treated for seven days with either 1.5% ethanol or 1 μM all-trans-retinoic acid (see Drug Treatment section). EBs were let to settle and perfused with 10% sucrose-PBS solution for 30 minutes at 4° C., followed by an additional step in 30% sucrose-PBS solution for 1 hr at 4° C., with gentle shaking. EBs were then frozen in Tissue-Tek OCT solution (Sakura Finetek, USA) and cut into 9 μm sections. Samples were fixed following sectioning with PBS buffered 4% formaldehyde solution for 3 minutes. Blocking was performed with PBS, 2% BSA, 0.1% Triton x-100 solution for 1 hour at room temperature. Sections were incubated overnight at 4° C. with the following primary antibodies; AFP at 1:50 dilution (SC-8399, Santa-Cruz); HOXA1 at 1:50 dilution (SC-17146, Santa-Cruz); NCAM-1 at 1:150 dilution (AF2408, R&D Systems); SOX17 at 1:400 dilution (AF1924, R&D Systems). The sections were then incubated for 1 hour with the appropriate secondary antibody (Cy-3, Jackson ImmunoResearch) at room temperature. Finally, sections were counterstained with Hoechst (B2883, Sigma) for 10 minutes at room temperature.
Specifically, the protein levels of the fetal liver specific gene AFP and the earlier endodermal marker SOX17 were examined to assess the effects of ethanol treatment. The effect of RA treatment on neural differentiation was determined using antibodies for the HOXA1 protein and the neuronal specific protein NCAM1.

[2] = test system: human embryoid bodies (H9 HESCs); assay: DNA microarray global gene expression profiling of treated HESC embryoid bodies; conditions: for genes whose expression was significantly changed (over two-fold) relative to untreated controls: EBs treated seven days
Procedure: Differentiation in-vitro into embryoid bodies (EBs) was performed by trypsinizing confluent cultures using 0.25% trypsin-A in DPBS solution (Biological industries, Beit-Haemek, Israel) for 15 seconds to dissociate the colonies into large clumps. Clumps were then transferred 1:1 into non-stick petri dishes and grown in regular HESC medium but without exogenous FGF2.
Drug treatments: Embryoid body media were supplemented with the various treatment compounds on the first day and changed on alternate days. […] Thalidomide (Sigma, T144) was dissolved in DMSO at 1000× stock solution and used at a final concentration of 10 μg/ml. All-trans-Retinoic acid (Sigma, R2625) was dissolved in DMSO at 100,000× stock solution and used at a final concentration of 1 μM.
Microarray data analysis: Following seven days in culture, embryoid bodies were harvested and RNA was extracted using RBC Bioscience (Taipei, Taiwan) total RNA extraction minikit (YRB50) according to the manufacturer's protocol. Hybridization to GeneChip Human Gene 1.0 ST expression arrays, washing and scanning were performed according to the manufacturer's protocol (Affymetrix). Arrays were analyzed using RMA probeset condensation algorithm (Expression Console, Affymetrix). […] Tissue specific genes were identified by comparing the expression of each of the five most relevant tissues to the mean expression of all other tissues (testis, brain, heart, spleen, skeletal muscle, kidney, liver, and breast). The top 200 genes by fold change for every tissue were regarded to be tissue specific genes.
Genes were considered differentially expressed when changed over two-fold. […] Significance was calculated separately for each test using a Chi-Square independence test and corrected for multiple testing (Bonferroni). […] Functional classification and significance were performed using the DAVID online functional annotation tool (worldwidewebdotdaviddotabccdotncifcrfdotgov/) using default settings, with a minimum p-value of 0.0001. General annotations with over 2000 members were removed from the analysis.

[3] = test system: HiPSC EBs (hTERT-BJ1 derived clone #28); assay: DNA microarray gene expression profiling of RA-treated HiPSC embryoid bodies; type: cell-based, human; conditions: RA 1 μM, seven days
Procedure: Thalidomide was tested twice and caffeine once.

mouse = conditions: in vivo; cited from earlier work
[4] = lithium chloride 1 mM, caffeine 50 mg/ml, RA 1 μM, thalidomide 10 μg/ml
[5] = seven days, RA 1 μM, thalidomide 10 μg/ml
[6] = Gene Ontology functional annotation (DAVID), thalidomide 10 μg/ml

CC(=O)Oc1ccccc1C(=O)O [aspirin]
teratogenicity in rodents (rodents): teratogenic | teratogenicity in humans (human): not in humans

CCO [ethanol, Ethanol]
AFP staining (protein level) ([1]; 1.5% ethanol, seven days): dramatic increase | SOX17 staining (protein level) ([1]; 1.5% ethanol, seven days): dramatic increase | AFP staining (protein level) ([1]; 1.5% ethanol, seven days, listed as Ethanol): elevation of AFP staining | enriched functional annotations for downregulated genes ([2]; DAVID functional annotation, ethanol): no significantly enriched functional annotations | genes whose expression was significantly changed (over two-fold) relative to untreated controls ([2]; 0.5% ethanol (v/v)): little or no effect | genes whose expression was significantly changed (over two-fold) relative to untreated controls ([2]; ethanol 1.5% and 2%, analyzed together): several hundred | liver protein genes, upregulated functional group enrichment ([2]; Gene Ontology functional annotation (DAVID), ethanol treated EBs): 9.3 fold | expression of later adult hepatic markers (albumin, alcohol dehydrogenase genes) ([2]; ethanol treated EBs): not upregulated | expression of early hepatic markers (AFP, transthyretin, apolipoprotein and fibrinogen genes) ([2]; high ethanol (1.5% and 2%)): specifically upregulated

CC1=C(/C=C/C(C)=C/C=C/C(C)=C/C(=O)O)C(C)(C)CCC1 [RA, All-trans-Retinoic acid]
expression of anterior HoxA and HoxB genes [3]: specifically upregulated | NCAM1 abundance at the protein level ([1]; 1 μM all-trans-retinoic acid, seven days): increase | differentiation into the neuronal lineage (HOXA1 and NCAM1 labeling) ([1]; RA treatment): higher differentiation into the neuronal lineage | genes whose expression was significantly changed (over two-fold) relative to untreated controls [2, 4]: several hundred | homeobox protein genes enriched in upregulated genes, fold above expected frequency ([2]; Gene Ontology functional annotation (DAVID), RA 1 μM): 14.1 fold | expression of anterior HoxA and HoxB genes ([2]; HESC EBs, RA 1 μM, seven days): specifically upregulated | HOXA1 overexpression at the mRNA level ([2]; RA 1 μM, seven days, relative to control): 13.6 fold | fold enrichment of heart specific genes in downregulated genes ([2]; seven days, RA 1 μM): 5.3 | fold enrichment of brain specific genes in upregulated genes [2, 5]: 2.6 fold

O=C1CCC(N2C(=O)c3ccccc3C2=O)C(=O)N1 (centres unmarked) [thalidomide, Thalidomide]
teratogenicity in the mouse (mouse): not identified prospectively as such | teratogenicity in humans (human): strong human teratogen | genes whose expression was significantly changed (over two-fold) relative to untreated controls [2, 4]: several hundred | downregulation of oxidative stress response genes, enrichment [2, 6]: 15.8 fold | nervous system development genes affected, enrichment [2, 6]: 2.5 fold | transforming growth factor beta genes affected, enrichment [2, 6]: 29.6 fold | upregulation of genes responsible for metabolism of xenobiotics, enrichment [2, 6]: 11.5 fold | fold enrichment of brain specific genes in upregulated genes [2, 5]: 12.5 fold | fold enrichment of liver specific genes in downregulated genes ([2]; seven days, thalidomide 10 μg/ml): 4.4 fold
